Laboratory results reported in BigSolDB 2.1.

CNC[C@H](O)[C@@H](O)[C@H](O)[C@H](O)CO.Cc1c(Nc2ncccc2C(=O)O)cccc1C(F)(F)F
solubility (mole fraction)
Conditions	283.15 K	288.15 K	293.15 K	298.15 K	303.15 K	308.15 K	313.15 K	318.15 K	323.15 K	328.15 K
in acetone	0.00077	0.000937	0.00119	0.00158	0.00215	0.00275	0.00354	0.0048	0.00698	0.0104
in acetonitrile	3.16e-05	3.86e-05	4.58e-05	6.88e-05	0.000109	0.000173	0.00025	0.00035	0.000517	0.000733
in ethanol	0.00285	0.00353	0.00448	0.00576	0.00775	0.0113	0.0162	0.0228	0.0345	0.0502
in isopropanol	0.000626	0.000759	0.000924	0.00118	0.00162	0.00198	0.00299	0.00433	0.00642	0.00934
in methanol	0.0202	0.024	0.0293	0.0349	0.0448	0.0547	0.0652	0.08	0.0934	0.111
in water	0.00738	0.00886	0.0111	0.0151	0.021	0.0286	0.0382	0.0504	0.0633	0.0807
